Patent publication US12139481B2, “Compositions comprising macrocycle derivatives incorporating bridged macrocycles and methods of producing and using same” (Southwestern Oklahoma State University, priority 2015, dated 2024)
pIC50: −log10 of the molar value.

How the values were obtained:
[1] = system: Staphylococcus aureus ATCC 29213; experiment: Antibacterial broth dilution assay against S. aureus (modified CLSI); format: cell-based; details: for S. aureus IC50 / pIC50: in vitro; for pIC50: converted with molecular weight; for X more potent than ciprofloxacen: molar IC50 ratio versus ciprofloxacen
Procedure: (§1) General Experimental Procedures. All organisms were obtained from the American Type Culture Collection (Manassas, VA) and include the fungi Candida albicans ATCC 90028, C. glabrata ATCC 90030, C. krusei ATCC 6258, and Cryptococcus neoformans ATCC 90113, and the bacteria Staphylococcus aureus ATCC 29213 and methicillin-resistant S. aureus ATCC 33591 (MRS). All organisms were tested using modified versions of the CLSI (formerly NCCLS) methods. For all organisms, optical density was used to monitor growth (NCCLS, Reference Method for Broth Dilution Antifungal Susceptibility Testing of Yeasts; Approved Standard M27-A2. National Committee on Clinical Laboratory Standards, 2002 22 (15); and NCCLS, Methods for Dilution Antimicrobial Susceptibility Tests for Bacteria that Grow Aerobically; Approved Standard, Seventh Edition M7-A7. National Committee on Clinical Laboratory Standards, 2006. 26(2)).
(§2) Samples (dissolved in DMSO) were serially-diluted in 20% DMSO/saline and transferred (10 μL) in duplicate to 96 well flat bottom microplates. Inocula were prepared by correcting the OD630 of microbe suspensions in incubation broth [RPMI 1640/0.2% dextrose/0.03% glutamine/MOPS @ pH 6.0 (Cellgro) for Candida spp., Sabouraud Dextrose for C. neoformans, and cation-adjusted Mueller-Hinton (Difco) @ pH 7.3 for Staphylococcus spp. to afford an assay volume of […] and final target inocula of: Candida spp. and C. neoformans: 1.5×10^3, and Staphylococcus spp.: 5.0×10^5 CFU/ml. Final sample test concentrations were 1/100th the DMSO stock concentration. […] All organisms were read at either 530 nm using the Biotek Powerwave XS plate reader (Bio-Tek Instruments, Vermont) prior to and after incubation: Candida spp. at 35° C. for 46-50 h, Staphylococcus spp. at 35° C. for 16-20 h, and C. neoformans at 35° C. for 70-74 h. IC50s (concentrations that afford 50% inhibition relative to controls) were calculated using XLfit 4.2 software (IDBS, Alameda, CA) using fit model 201. The MIC is defined as the lowest test concentration that allows no detectable growth. Minimum fungicidal or bactericidal concentrations were determined by removing 5 μl from each clear (or blue) well, transferring to fresh media, and incubating as previously mentioned. The MFC/MBC is defined as the lowest test concentration that kills the organism (allows no growth).
(§3) Primary Analysis. Samples were tested in duplicate at one test concentration (50 μg/mL), and percent inhibitions were calculated relative to blank and growth controls. Samples showing 50% inhibition in at least one test organism were selected for dose response (Secondary) studies.
(§4) Secondary Analysis. Extracts from the Primary Assay, and first-run pure compounds and column fractions were tested in duplicate at 3 test concentrations (5-fold dilutions). Samples dissolved to 20 mg/mL in DMSO were tested at 200, 40, and 8 μg/mL. Samples dissolved to 2 mg/mL in DMSO were tested at 20, 4, and 0.8 μg/mL.

[2] = system: methicillin-resistant S. aureus ATCC 33591 (MRS); experiment: Antibacterial broth dilution assay against MRSA (modified CLSI); format: cell-based, Staphylococcus aureus; details: for MRSa IC50 / pIC50: in vitro; for pIC50: converted with molecular weight; for X more potent than ciprofloxacen: molar IC50 ratio versus ciprofloxacen
Procedure: as §1, §2, §3, §4

[3] = system: L. donovani promastigotes; experiment: Antileishmanial Alamar Blue assay on promastigotes; format: cell-based, Leishmania donovani; details: for X more potent than Pentamidine: L. donovani, ratio of molar IC50 to Pentamidine; for L. donovani IC50 / pIC50: promastigotes, 48 hours, Alamar Blue; for pIC50: read-out: L. donavani IC50
Summary of the method: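 Alamar Blue fluorescence (544/590 nm) quantified growth after 48 hours at 26° C of compound-treated promastigotes. Parasites were seeded at 5×10^5/mL in RPMI 1640 plus 10% FCS; drug range 50-3.1 μg/mL, and IC50 derived by plotting percent growth against test concentration.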

C. krusei ATCC 6258 = experiment: Antifungal broth dilution assay against C. krusei (modified CLSI); format: cell-based, Candida krusei; details: for X more potent than Amphotericin B: C. krusei, ratio of molar IC50 to amphotericin B; for C. krusei IC50 / pIC50: in vitro; for pIC50: read-out: C. krusei IC50 (mol/L)
Procedure: as §1, §2, §3, §4

[4] = system: Cryptococcus neoformans ATCC 90113; experiment: Antimicrobial microdilution assay against Cryptococcus neoformans (modified CLSI/NCCLS, optical density); format: cell-based; details: for X more potent than Amphotericin B: C. neoformans, ratio of molar IC50 to Amphotericin B; for C. neoformans IC50 / pIC50: in vitro, C. neoformans ATCC 90113; for pIC50: read-out: C. neoformans IC50 (mol/L)
Summary of the method: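 Fungicidal endpoint taken by subculturing 5 μL from each clear well onto agar, MFC being the lowest concentration with no regrowth. Duplicate wells of serially diluted compound (20% DMSO/saline) in RPMI pH 6.0, read at 630 nm pre- and post-incubation, under modified CLSI methods. IC50 means 50% growth inhibition against controls.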

C. glabrata ATCC 90030 = experiment: Antifungal broth dilution assay against C. glabrata (modified CLSI); format: cell-based, Candida glabrata; details: for C. glabrata IC50 / pIC50: in vitro; for pIC50: converted with molecular weight; for X more potent than Amphotericin B: molar IC50 ratio versus amphotericin B
Summary of the method: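 Growth read by optical density at 530 nm, duplicate wells, 1% final DMSO. Staphylococcus spp.: Mueller-Hinton pH 7.3, 5.0×10^5 CFU/ml, 35 °C for 16-20 h; Candida spp.: RPMI/dextrose/glutamine/MOPS pH 6.0, 1.5×10^3 CFU/ml, 35 °C for 46-50 h. Reported values are 50% inhibition versus controls, no-growth MIC, and killing MFC/MBC.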

| Molecule | S. aureus IC50 [1] [µg/mL] | pIC50 [1] | X more potent than ciprofloxacen [1] | MRSa IC50 [2] [µg/mL] | pIC50 [2] | X more potent than ciprofloxacen [2] | X more potent than Pentamidine [3] | L. donovani IC50 [3] [µg/mL] | pIC50 [3] | X more potent than Amphotericin B (C. krusei ATCC 6258) | C. krusei IC50 (C. krusei ATCC 6258) [µg/mL] | pIC50 (C. krusei ATCC 6258) | X more potent than Amphotericin B [4] | C. neoformans IC50 [4] [µg/mL] | pIC50 [4] | C. glabrata IC50 (C. glabrata ATCC 90030) [µg/mL] | pIC50 (C. glabrata ATCC 90030) | X more potent than Amphotericin B (C. glabrata ATCC 90030) |
| --- | --- | --- | --- | --- | --- | --- | --- | --- | --- | --- | --- | --- | --- | --- | --- | --- | --- | --- |
| c1ccc(CN2CCN3CCN(CC2)CCN(Cc2ccccc2)CC3)cc1 [ANCl4] | 8.810 | 4.63 | 0.01 | 8.570 | 4.65 | 0.01 | – | – | – | – | – | – | – | – | – | – | – | – |
| CC(=O)[O-].F[P-](F)(F)(F)(F)F.[Ni+2].c1ccc(CN2CCN3CCCN(CC2)CCN(Cc2ccccc2)CC3)cc1 [AW039, [Ni(Bn2PBCyclen)(C2H3O2)]PF6] | 4.73 | 5.14 | 0.04 | – | – | – | 0.14 | 24.41 | 4.43 | 0.17 | 5.610 | 5.07 | 0.02 | 7.640 | 4.93 | 5.030 | 5.11 | 0.18 |
| CC(=O)[O-].F[P-](F)(F)(F)(F)F.[Co+2].c1ccc(CN2CCCN3CCCN(CCCN(Cc4ccccc4)CC3)CC2)cc1 [DJD21, [Co(Bn2PBCyclam)(OAc)]PF6] | 3.590 | 5.28 | 0.05 | 3.710 | 5.27 | 0.04 | 0.26 | 14.12 | 4.68 | – | – | – | 0.05 | 3.510 | 5.29 | – | – | – |
| CC(=O)[O-].F[P-](F)(F)(F)(F)F.[Zn+2].c1ccc(CN2CCCN3CCCN(CCCN(Cc4ccccc4)CC3)CC2)cc1 [DJD23, [Zn(Bn2PBCyclam)(OAc)]PF6] | 6.530 | – | 0.03 | 3.210 | – | 0.05 | 0.85 | 4.32 | – | – | – | – | 0.08 | 1.990 | – | – | – | – |
| c1cc(CN2CCN3CCNCCN(CC3)CC2)ccc1CN1CCN2CCNCCN(CC2)CC1 [JGL19, p-CB-H2Bcyclens] | 2.900 | 5.24 | 0.05 | 1.060 | 5.67 | 0.10 | 0.31 | 8.54 | 4.77 | – | – | – | 0.20 | 0.590 | 5.93 | – | – | – |
| Clc1cc(CN2CCNCCN3CCN(CC3)CC2)cc(Cl)n1 [OB99, (dcp)1-SB-cyclen] | 7.520 | 4.68 | 0.01 | – | – | – | 0.09 | 20.87 | 4.23 | 0.09 | 5.660 | 4.80 | 0.28 | 0.310 | 6.06 | – | – | – |
| O=[N+]([O-])[O-].O=[N+]([O-])[O-].O=[N+]([O-])[O-].O=[N+]([O-])[O-].O=[N+]([O-])c1ccc(CC2CNCCN(Cc3ccc(CN4CCCN5CCN(CCCNCC4)CC5)cc3)CCCN3CCN(CC3)C2)cc1.[Ni+2].[Ni+2] (centres unmarked) [SJA236, [Ni2(bis-SB-C-Ar-NO2)(NO3)4]] | – | – | – | – | – | – | 0.23 | 24.85 | 4.63 | 0.26 | 6.030 | 5.24 | 0.34 | 0.740 | 6.15 | 5.750 | 5.26 | 0.26 |
| c1ccc(CN2CCCN3CCCN(CCCN(Cc4ccccc4)CC3)CC2)cc1 [SLK09, Bn2PBCyclam] | 2.270 | 5.27 | 0.05 | 4.960 | 4.93 | 0.02 | 0.87 | 2.56 | 5.22 | – | – | – | 0.11 | 0.910 | 5.66 | – | – | – |
| [Br-].[Br-].c1cc(C[N+]23CCCN(CCN4CCCN(CC2)C4)C3)ccc1C[N+]12CCCN(CCN3CCCN(CC1)C3)C2 [SLK17A, [p-(BMBCyclams)]Br2] | – | – | – | – | – | – | 0.23 | 16.69 | 4.63 | 1.21 | 0.880 | 5.91 | 0.02 | 8.250 | 4.94 | 1.317 | 5.73 | 0.77 |
| [Co2(m-cyclam-homocyclen)(OAc)2][PF6]2 [AW049] | 5.600 | 5.29 | 0.05 | – | – | – | 0.34 | 16.93 | 4.81 | 0.25 | 6.520 | 5.23 | 1.67 | 0.156 | 6.85 | 1.217 | 5.95 | 1.28 |
| [Cu(Bn2PBCyclam)(OAc)]PF6•5H2O [BME10B] | 5.670 | 5.11 | 0.04 | 5.350 | 5.14 | 0.03 | 1.07 | 3.64 | 5.30 | – | – | – | 0.01 | 13.810 | 4.73 | – | – | – |
| [Fe(Bn2PBCyclen)(C2H3O2)]PF6•1.2NH4PF6 [AW037] | 4.940 | 5.23 | 0.05 | 9.480 | 4.95 | 0.02 | 0.17 | 26.63 | 4.50 | – | – | – | 0.02 | 8.400 | 5.00 | – | – | – |
| [Mn2(m-cyclam-homocyclen)][MnCl4]2•12H2O [AW047] | 5.380 | 5.38 | 0.07 | 7.850 | 5.22 | 0.03 | – | – | – | – | – | – | 0.08 | 3.770 | 5.53 | – | – | – |
